# From article PMC4942781, “A sodium channel inhibitor ISTX-I with a novel structure provides a new hint at the evolutionary link between two toxin folds” (Scientific Reports, 2016)
# “Also recorded” adds a separate entry of the source. Bridge positions count the residues as written; N and C are the ends. Ends that are not written are not given here.
# Assays:
# TTX-s sodium channel = test: Whole-cell patch clamp, TTX-s sodium currents in rat DRG neurons; type: cell-based
# Protocol: The effects of ISTX-I on voltage-gated ion channels were investigated in the dorsal root ganglion (DRG). DRG neurons were held at −80 mV for over 4 min to allow adequate equilibration between the micropipette solution and the cell interior, and then current traces were evoked using a 50 ms step depolarization to −10 mV every second.
# Figure 3 Effects of ISTX-I on voltage-gated ion channels in rat DRG neurons. […] (C) Dose-dependent inhibition of ISTX-I on the TTX-s Nav channel (n = 5). (D) Current-voltage (I-V) relationship for the TTX-s Nav channel currents before (solid circles) and after (open circles) the application of 5 μM ISTX-I (n = 5). (E) Conductance–voltage (G-V) relationship of the TTX-s Nav channel before (solid circles) and after (open circles) treatment with 5 μM ISTX-I (n = 5). (F) Steady-state inactivation of the TTX-s Nav channel currents before (solid circles) and after(open circles) the application of 10 μM ISTX-I (n = 5).
# (§1) Rat DRG cells were acutely dissociated from adult Sprague-Dawley rats[30]. Briefly, adult rats of either sex with body weights of approximately 200 g were killed by decapitation. The dorsal root ganglia were isolated quickly from the spinal cord and then transferred into Dulbecco’s modified Eagle’s medium (DMEM) containing trypsin I (0.15 mg/mL) and collagenase II (0.3 mg/mL) for incubation with an oscillation frequency of 200 rpm at 37 °C for 20 min. The trypsin inhibitor II-S (1 mg/mL) was added to terminate the reaction. The isolated DRG cells were split into 35 mm culture dishes with DMEM solution containing 10% fetal bovine serum (FBS) and were incubated in a CO2 incubator (5% CO2, 95% air, 37 °C) for 1–4 h before the patch-clamp experiment.
# DRG neurons with a large diameter (>[…]) and those with a relatively small diameter (<[…]) were chosen by measuring TTX-s and TTX-r currents, respectively. Meanwhile, TTX (final concentration at 100 nM) was used to separate TTX-r sodium currents from TTX-s sodium currents. Suction pipettes (2.0–4.0 MΩ) were made of borosilicate glass capillary tubes with two-step pulling on a vertical micropipette puller (PC-10, Narishige). Potassium, calcium, and sodium currents were recorded in experimental cells using whole-cell patch-clamp recordings at room temperature, which were performed with an HEK EPC10 patch-clamp amplifier. The P/4 protocol was used to subtract linear capacitive and leakage currents. Experimental data were acquired and analyzed using the programs patch master and Sigmaplot 9.0 (Sigma, USA). All of the data points represent the mean ± SE (n = the number of separate experimental cells examined). Dose-response curves were fitted using the following Hill logistic equation: y = 1 − (1 − fmax)/[1 + ([Tx]/IC50)^n] in which n is an empirical Hill coefficient and fmax is the fraction of current resistant to inhibition at high toxin (Tx) concentrations.
# Electrophysiological studies.
# Currents were recorded from experimental cells using whole-cell patch clamptechnique at room temperature (22–25 °C). The patch pipettes were fabricated from borosilicate glass tubing using a two-stage vertical microelectrode puller (PC-10, Narishige, Japan). After establishing the whole-cell recording configuration, the resting potential was held at −80 mV for at least 5 min to allow adequate equilibration between the micropipette solution and the cell interior. The micropipette solution of sodium currents for dorsal root ganglion neurons contained (in mM): 105 […]
# Ionic currents were filtered at 3 kHz and sampled at 20 kHz on EPC-9 patch clamp amplifier (HEKA, Lambrecht, Germany).
# Supplementary Figure legends
# Figure S1. Expression, purification and molecular mass determination of recombinant ISTX-I. A: Separation of ISTX-I by Sephadex G-50 gel filtration. […]
# protein molecular weight marker; lanes1&2, ISTX-I/pET-32a(+) uninduced and induced cells, respectively. B: The protein peak (indicated by an arrow) from […]
# potassium channel = test: Whole-cell patch clamp, Kv currents in DRG neurons; type: cell-based, rat; settings: 20 μM ISTX-I, 500 ms depolarized potential of +10 mV
# Protocol: as §1, with “The isolated DRG cells were split into 35 mm culture dishes with DMEM solution containing 10% fetal bovine serum (FBS) and were incubated in a CO2 incubator (5% CO2, 95% air, 37 °C) for 1–4 h before the patch-clamp experiment.” left out
# DRG neurons with a large diameter (>[…]) and those with a relatively small diameter (<[…]) were chosen by measuring TTX-s and TTX-r currents, respectively. […] Potassium, calcium, and sodium currents were recorded in experimental cells using whole-cell patch-clamp recordings at room temperature, which were performed with an HEK EPC10 patch-clamp amplifier. […] Experimental data were acquired and analyzed using the programs patch master and Sigmaplot 9.0 (Sigma, USA). […]
# Currents were recorded from experimental cells using whole-cell patch clamptechnique at room temperature (22–25 °C). […]
# (pH 7.4). K+ currents were recorded using an internal solution containing the followings (in mM): KCl 140, MgCl2 2.5, HEPES 10, and EGTA 11 (pH 7.2). […]
sequence,measurement,setting,value
"LCSENGDCAADECCVDTVFEGDMVTRSCEKTTGNFTECPGLTPIA (disulfide 2-14, 8-28, 13-38) [ISTX-I]",effect on TTX-s sodium channels (summary),TTX-s sodium channel,specifically inhibited TTX-s sodium channels
same,Inhibition of TTX-s Nav channel currents,TTX-s sodium channel; 1 μM ISTX-I (legend of Fig. 3A),Inhibition of TTX-s Nav channel currents
same,reduction of TTX-s sodium channel currents,"TTX-s sodium channel; 2 μM ISTX-I, 50 ms step depolarization to −10 mV, held at −80 mV, room temperature",approximately 50%
same,change of conductance–voltage (G-V) relationship,"TTX-s sodium channel; 5 μM ISTX-I, TTX-s, n = 5",No changes
same,shift of current–voltage (I-V) curve,"TTX-s sodium channel; 5 μM ISTX-I, TTX-s, n = 5",No changes
same,"shift of steady-state inactivation curve, hyperpolarized direction","TTX-s sodium channel; 10 μM ISTX-I, TTX-s, n = 5",approximately 11 mV
same,IC50,"TTX-s sodium channel; Hill equation fit, 50 ms step to −10 mV from −80 mV, mean ± SE, n = 5",2.5 ± 1.4 µM
same,effect on potassium channels,potassium channel,no obvious effects; also recorded: No effects were detected
